Source: patent US20240018161A1, “MODULATORS OF CYSTIC FIBROSIS TRANSMEMBRANE CONDUCTANCE REGULATOR” (VERTEX PHARMACEUTICALS INCORPORATED, priority 2020, published 2024)
Where two headings read alike, the source gives them in different places.

Biological target: CFTR-mediated chloride transport in human intestinal epithelial enteroid cells (Homo sapiens, UniProt P13569)
Experiment: Membrane potential dye, Enteroid Assay A
Format: cell-based
Conditions: for EC50: read-out: Ent. A EC50
Experimental: Base medium (ADF+++) consisted of Advanced DMEM/Ham's F12, 2 mM Glutamax, 10 mM HEPES, […] penicillin/streptomycin.
Bath 1 Buffer consisted of 1 mM MgCl2, 160 mM NaCl, 4.5 mM KCl, 10 mM HEPES, 10 mM Glucose, 2 mM CaCl2.
Chloride Free Buffer consisted of 1 mM Magnesium Gluconate, 2 mM Calcium Gluconate, 4.5 mM Potassium Gluconate, 160 mM Sodium Gluconate, 10 mM HEPES, 10 mM Glucose.
Bath1 Dye Solution consisted of Bath 1 Buffer, 0.04% Pluronic F127, 20 μM Methyl Oxonol, 30 μM CaCCinh-A01, 30 μM Chicago Sky Blue.
Chloride Free Dye Solution consisted of Chloride Free Buffer, 0.04% Pluronic F127, 20 μM Methyl Oxonol, 30 μM CaCCinh-A01, 30 μM Chicago Sky Blue.
3. Enteroid Cell Harvesting and Seeding
Cells were recovered in cell recovery solution, collected by centrifugation at 650 rpm for 5 min at 4° C., resuspended in TryPLE and incubated for 5 min at 37° C. Cells were then collected by centrifugation at 650 rpm for 5 min at 4° C. and resuspended in IEMM containing 10 μM ROCK inhibitor (RI).
4. Membrane Potential Dye, Enteroid Assay A
Briefly, cells were washed 5 times in Bath 1 Buffer. Bath 1 Dye Solution was added, and the cells were incubated for 25 min at room temperature. Following dye incubation, cells were washed 3 times in Chloride Free Dye Solution. Chloride transport was initiated by addition of Chloride Free Dye Stimulation Solution and the fluorescence signal was read for 15 min. […] Chloride transport was then expressed as a percentage of the chloride transport following treatment with 3 μM N-[(6-amino-2-pyridyl)sulfonyl]-6-(3-fluoro-5-isobutoxy-phenyl)-2-[(4S)-2,2,4-trimethylpyrrolidin-1-yl]pyridine-3-carboxamide, 3 μM (R)-1-(2,2-difluorobenzo[d][1,3]dioxol-5-yl)-N-(1-(2,3-dihydroxypropyl)-6-fluoro-2-(1-hydroxy-2-methylpropan-2-yl)-1H-indol-5-yl)cyclopropanecarboxamide and 300 nM acute N-[2,4-bis(1,1-dimethylethyl)-5-hydroxyphenyl]-1,4-dihydro-4-oxoquinoline-3-carboxamide triple combination control (% Activity).

[1] = enteroid cells incubated with test compound 18-24 hours, acute 10 μM forskolin and 300 nM N-[2,4-bis(1,1-dimethylethyl)-5-hydroxyphenyl]-1,4-dihydro-4-oxoquinoline-3-carboxamide
[2] = percentage of chloride transport of triple combination control (3 μM N-[(6-amino-2-pyridyl)sulfonyl]-6-(3-fluoro-5-isobutoxy-phenyl)-2-[(4S)-2,2,4-trimethylpyrrolidin-1-yl]pyridine-3-carboxamide based)

CFTR-mediated chloride transport in human intestinal epithelial enteroid cells, sequence (P13569 with tags, fused parts or gaps DEL508-508): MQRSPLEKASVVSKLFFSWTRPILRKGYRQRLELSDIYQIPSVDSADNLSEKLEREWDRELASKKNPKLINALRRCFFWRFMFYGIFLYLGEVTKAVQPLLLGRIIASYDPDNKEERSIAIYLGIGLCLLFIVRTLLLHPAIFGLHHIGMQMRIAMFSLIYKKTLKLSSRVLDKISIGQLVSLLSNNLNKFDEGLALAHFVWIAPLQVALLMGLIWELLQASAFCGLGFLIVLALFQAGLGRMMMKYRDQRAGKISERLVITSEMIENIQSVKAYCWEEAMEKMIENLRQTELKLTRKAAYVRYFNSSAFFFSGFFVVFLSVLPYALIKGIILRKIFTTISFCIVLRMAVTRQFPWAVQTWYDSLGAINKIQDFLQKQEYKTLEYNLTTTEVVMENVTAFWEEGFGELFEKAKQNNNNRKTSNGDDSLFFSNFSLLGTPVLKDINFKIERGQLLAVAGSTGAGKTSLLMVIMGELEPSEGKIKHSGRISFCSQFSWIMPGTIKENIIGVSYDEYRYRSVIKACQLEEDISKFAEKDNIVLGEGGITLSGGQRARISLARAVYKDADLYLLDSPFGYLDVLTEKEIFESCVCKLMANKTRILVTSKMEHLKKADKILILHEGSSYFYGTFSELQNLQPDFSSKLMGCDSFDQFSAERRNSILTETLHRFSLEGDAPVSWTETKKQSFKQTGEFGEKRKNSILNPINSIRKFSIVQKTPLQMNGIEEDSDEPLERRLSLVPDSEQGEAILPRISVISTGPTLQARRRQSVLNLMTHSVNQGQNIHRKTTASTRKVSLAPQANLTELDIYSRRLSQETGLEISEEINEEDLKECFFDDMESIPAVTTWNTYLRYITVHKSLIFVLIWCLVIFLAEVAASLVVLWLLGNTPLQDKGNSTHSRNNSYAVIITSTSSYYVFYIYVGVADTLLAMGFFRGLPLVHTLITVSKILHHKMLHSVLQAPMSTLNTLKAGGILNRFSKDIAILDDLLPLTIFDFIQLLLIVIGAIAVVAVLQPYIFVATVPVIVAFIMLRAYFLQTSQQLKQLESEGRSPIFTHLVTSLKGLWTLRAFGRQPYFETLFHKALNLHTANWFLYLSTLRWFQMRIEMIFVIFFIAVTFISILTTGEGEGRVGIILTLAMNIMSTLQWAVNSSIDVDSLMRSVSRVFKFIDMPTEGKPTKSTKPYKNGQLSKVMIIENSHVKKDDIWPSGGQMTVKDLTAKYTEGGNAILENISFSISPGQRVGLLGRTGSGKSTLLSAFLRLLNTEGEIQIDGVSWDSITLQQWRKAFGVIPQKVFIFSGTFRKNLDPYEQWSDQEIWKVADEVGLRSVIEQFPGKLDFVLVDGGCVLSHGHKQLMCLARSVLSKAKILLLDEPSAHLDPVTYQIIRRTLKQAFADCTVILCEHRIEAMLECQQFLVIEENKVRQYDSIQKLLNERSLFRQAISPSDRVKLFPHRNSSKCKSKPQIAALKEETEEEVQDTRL

| SMILES | Ent. A Max Activity (%) (Enteroid Assay A) | EC50 (Enteroid Assay A) [µM] | EC50 [1] [µM] | Ent. A Max Activity (%) [2] | Ent. A Max Activity (%) |
| --- | --- | --- | --- | --- | --- |
| Cc1cccc(C)c1-c1cc2nc(n1)NS(=O)(=O)c1cccc(c1)C(=O)N1CCN(CCC(C)(C)C)CC(O2)C1CC(C)C (single isomer, unassigned) [Compound 92, 18-(3,3-Dimethylbutyl)-12-(2,6-dimethylphenyl)-21-(2-methylpropyl)-15-oxa-8λ^6-thia-1,9,11,18,22-pentaazatetracyclo[14.4.1.13,7.110,14]tricosa-3(23),4,6,10(22),11,13-hexaene-2,8,8-trione] | +++ (+++ is >600%) | < 1 |  |  |  |
| Cc1cccc(C)c1-c1cc2nc(n1)NS(=O)(=O)c1cccc(c1)C(=O)N1Cc3ccccc3C[C@H](C1)O2 (single isomer, unassigned) [Compound 216, 12-(2,6-dimethylphenyl)-15-oxa-8λ^6-thia-1,9,11,26-tetraazapentacyclo[14.8.1.13,7.110,14.018,23]heptacosa-3(27),4,6,10,12,14(26),18,20,22-nonaene-2,8,8-trione] |  |  | 1 to 3 | +++ (+++ is >60%) |  |
| Cc1cccc(C)c1-c1cc2nc(n1)NS(=O)(=O)c1cnn(c1)CCC(=O)N1Cc3ccccc3C(C1)O2 (centres unmarked) [Compound 346] |  |  |  | + (+ is <300%) |  |
| Cc1cccc(C)c1-c1cc2nc(n1)NS(=N)(=O)c1cccc(c1)C(=O)N1CCNCC(C1)O2 (centres unmarked) [Compound 242, 12-(2,6-Dimethylphenyl)-8-imino-15-oxa-8λ^6-thia-1,9,11,18,22-pentaazatetracyclo[14.4.1.13,7.110,14]tricosa-3,5,7(23),10,12,14(22)-hexaene-2,8-dione] | + (+ is <30%) |  |  |  |  |
| Cc1cccc(C)c1-c1cc2nc(n1)NS(=O)(=O)c1cccc(c1)C(=O)N1CCN(C)CC1CO2 (centres unmarked) [Compound 324] |  |  | 3 to 30 | ++ (++ is 30-60%) |  |
| Cc1cccc(C)c1-c1cc2nc(n1)NS(=O)(=O)c1cccc(c1)C(=O)N1CCN(CC3CC4C=CC3C4)CC(C1)O2 (centres unmarked) [Compound 59] |  |  | < 1 | +++ (+++ is >60%) |  |
| Cc1cccc(C)c1-c1cc2nc(n1)NS(=O)(=O)c1cccc(c1)C(=O)N1CCN(C3CCC4(CCCCC4)CC3)C[C@H](C1)O2 [Compound 12] | +++ (+++ is >600%) | < 1 |  |  |  |
| Cc1cccc(C)c1-c1cc2nc(n1)NS(=O)(=O)c1cccc(c1)C(=O)N1CCN(Cc3ccc(O)cc3)C[C@@H]1CO2 [Compound 273] |  |  | 1 to 3 | ++ (++ is 30-60%) |  |
| Cc1cccc(C)c1-c1cc2nc(n1)NS(=O)(=O)c1cccc(c1)C(=O)N1CCN(C3CC4(CCCCC4)C3)C[C@H](C1)O2 [Compound 3, (16R)-12-(2,6-Dimethylphenyl)-18-{spiro[3.5]nonan-2-yl}-15-oxa-8λ^6-thia-1,9,11,18,22-pentaazatetracyclo[14.4.1.13,7.110,14]tricosa-3(23),4,6,10(22),11,13-hexaene-2,8,8-trione] | +++ (+++ is >600%) | < 1 |  |  |  |
| Cc1cccc(C)c1-c1cc2nc(n1)NS(=O)(=O)c1cccc(c1)C(=O)N1CCN(Cc3ccccn3)C[C@@H]1CO2 [Compound 281] |  |  |  | ++ (++ is 30-60%) |  |
| Cc1cccc(C)c1-c1cc2nc(n1)NS(=O)(=O)c1cccc(c1)C(=O)N1CCN(C3CCC(C)(C)C3)C[C@H](C1)O2 (single isomer, unassigned) [Compound 37] | +++ (+++ is >600%) | < 1 |  |  |  |
| Cc1cccc(C)c1-c1cc2nc(n1)NS(=O)(=O)c1cccc(c1)C(=O)N1CCN(CC3CC3)C[C@H](C1)O2 [Compound 35, (16R)-18-(Cyclopropylmethyl)-12-(2,6-dimethylphenyl)-8,8-dioxo-15-oxa-8λ^6-thia-1,9,11,18,22-pentazatetracyclo[14.4.1.13,7.110,14]tricosa-3,5,7(23),10(22),11,13-hexaen-2-one] |  |  | < 1 | +++ (+++ is >60%) |  |
| Cc1cccc(C)c1-c1cc2nc(n1)NS(=O)(=O)c1cccc(c1)C(=O)N1CCC3(CC3)C(C1)O2 (centres unmarked) [Compound 370] |  |  | < 1 | +++ (+++ is >60%) |  |
| Cc1cccc(C)c1-c1cc2nc(n1)NS(=O)(=O)c1cccc(c1)C(=O)N1CCN(Cc3ccnnc3)C[C@@H]1CO2 [Compound 287] |  |  |  | + (+ is <300%) |  |
| Cc1cccc(C)c1-c1cc2nc(n1)NS(=O)(=O)c1cccc(c1)C(=O)N1CCN(C3CCC(F)(F)CC3)C[C@@H](O2)[C@H]1CC(C)C [Compound 158] |  |  |  |  | +++ (key: +++ is >600%; ++ is 30-60%; + is <30%) |
| Cc1cccc(C)c1-c1cc2nc(n1)NS(=O)(=O)c1cccc(c1)C(=O)N1CCN(Cc3ccccc3C#N)CC(C1)O2 (centres unmarked) [Compound 54] |  |  | < 1 | +++ (+++ is >60%) |  |
| Cc1cccc(C)c1-c1cc2nc(n1)NS(=O)(=O)c1cccc(c1)C(=O)N1CCN(CCc3ccccc3)CC1CO2 (centres unmarked) [Compound 311] |  |  | < 1 | ++ (++ is 30-60%) |  |
| Cc1cccc(C)c1-c1cc2nc(n1)NS(=O)(=O)c1cccc(c1)C(=O)N1CCNCC(O2)C1CC(C)C (centres unmarked) [Compound 93, 12-(2,6-Dimethylphenyl)-21-(2-methylpropyl)-15-oxa-8λ^6-thia-1,9,11,18,22-pentaazatetracyclo[14.4.1.13,7.110,14]tricosa-3(23),4,6,10(22),11,13-hexaene-2,8,8-trione] | +++ (+++ is >600%) | 1 to 3 |  |  |  |
| Cc1cccc(C)c1-c1cc2nc(n1)NS(=O)(=O)c1cccc(c1)C(=O)N1CCN(C3CC4(CCCC4)C3)C[C@H](C1)O2 [Compound 8, (16R)-12-(2,6-Dimethylphenyl)-18-{spiro[3.4]octan-2-yl}-15-oxa-8λ^6-thia-1,9,11,18,22-pentaazatetracyclo[14.4.1.13,7.110,14]tricosa-3(23),4,6,10(22),11,13-hexaene-2,8,8-trione] | +++ (+++ is >600%) | < 1 |  |  |  |
| Cc1cccc(C)c1-c1cc2nc(n1)NS(=O)(=O)c1cccc(c1)C(=O)N1CCN(C3CC(F)(F)C3)C[C@H](C1)O2 [Compound 21] | +++ (+++ is >600%) | < 1 |  |  |  |
| Cc1cccc(C)c1-c1cc2nc(n1)NS(=O)(=O)c1cccc(c1)C(=O)N1CCN(C3CC4(CCCC4)C3)C[C@@H](O2)[C@H]1CC(C)C [Compound 83, (16R,21R)-12-(2,6-Dimethylphenyl)-21-(2-methylpropyl)-18-{spiro[3.4]octan-2-yl}-15-oxa-8λ^6-thia-1,9,11,18,22-pentaazatetracyclo[14.4.1.13,7.110,14]tricosa-3(23),4,6,10(22),11,13-hexaene-2,8,8-trione] | +++ (+++ is >600%) | < 1 |  |  |  |
| Cc1cccc(C)c1-c1cc2nc(n1)NS(=O)(=O)c1cccc(c1)C(=O)N1CCOC[C@@H]1[C@@H](Cc1ccccc1)O2 [Compound 209, (8R)-9-Benzyl-13-(2,6-dimethylphenyl)-6,10-dioxa-17λ^6-thia-3,14,16,23-tetraazatetracyclo[16.3.1.111,15.03,8]tricosa-1(22),11,13,15(23),18,20-hexaene-2,17,17-trione] |  |  | < 1 | +++ (+++ is >60%) |  |
| Cc1cccc(C)c1-c1cc2nc(n1)NS(=O)(=O)c1cccc(c1)C(=O)N1CCN(CC3(NC(=O)OC(C)(C)C)CCCC3)C[C@@H]1CO2 [Compound 257] |  |  | < 1 | +++ (+++ is >60%) |  |
